According to US20040086896A1, “Polynucleotides and polypeptides associated with the NF-kB pathway” (priority 2001, published 2004):

B1: IL-1α: IL-1α (Peprotech) cytokine stimulus (protein, UniProt P01583 113-271, looked up)
Interleukin-1 alpha: SAPFSFLSNVKYNFMRIIKYEFILNDALNQSIIRANDQYLTAAALHNLDEAVKFDMGAYKSSKDDAKITVILRISKTQLYVTAQDEDQPVLLKEMPEIPKTITGSETNLLFFWETHGTKNYFTSVAHPNLFIATKQDYWVCLAGGPPSITDFQILENQA

How the values were obtained:
AD037 mRNA [1] = test: AD037 mRNA by RT-PCR in stimulated synovial fibroblasts; format: cell-based; conditions: synovial fibroblasts, 1, 6, or 24 hours; TNFα, IL-1α, IL-17 10 ng/ml, IL-17B-Ig fusion protein 5 ng/ml; FIG. 20
Experimental: (§1) Nonetheless, the following methods were used to assess the expression profile of the NFkB assocaited polypeptides of the present invention. Briefly, poly (A)^+ mRNA was isolated from THP-1 cells that were either unstimulated, or stimulated with 100 ng/ml LPS for two hours in the presence and absence of BMS-205820 (2 uM) using the Fast Track isolation kit (Invitrogen, Carlsbad, Calif.) according to the manufacturer's instructions. RNA quality and quantity were evaluated using UV spectrometry and capillary electrophoresis with the RNA 6000 Assay (Agilent). Five-hundred nanograms of polyA RNA was used for first-strand cDNA synthesis using the SuperScriptTm First-Strand Synthesis System for RT-PCR (Invitrogen) according to the manufacturer's instructions with 250 ng of random hexamers.
PCR reactions were performed in a total volume of 40 ul containing master mix (SYBR Green I dye, 50 mM Tris-Cl pH 8.3, 75 mM KCl, DMSO, Rox reference dye, 5 mM MgCl2, 2 mM dNTP, I unit Platinum Taq High Fidelity enzyme), 0.5 uM each of forward and reverse gene-specific primers, and cDNA (8 ul of a 1:36 dilution of the first strand reaction mix). For tissue expression analyses, PCR reactions included 2 ul of cDNA derived from the Human Multiple Tissue cDNA panel I and Human Immune System MTC Panel (Clontech, Palo Alto, Calif.). The amplification program consisted of a 10 minute incubation at 95° C., followed by 40 cycles of incubations at 95° C. for 15 seconds, 60° C. for 1 minute. The amplification was followed by melting curve analysis at 60° C. to determine the specificity of the amplification reaction. A negative control without cDNA template was run to assess the overall specificity. The data were analyzed using the TaqMan 5700 software with the threshold value set to 0.5. The message levels of GAPDH were used to normalize the amounts of cDNA for each reaction.
Synovial fibroblasts were obtained from Cell Applications, INC. […] The levels of each NFkB associated polypeptide mRNA may be measured by RT-PCR analysis using the primers described herein for each gene. […]

NF-κB pathway = test: AD037 mRNA by quantitative PCR in THP-1 monocytes, LPS with dexamethasone or IKK-2 inhibitor (FIG. 80); format: cell-based, human; conditions: LPS, 2, 4 and 8 hours post stimulation
Experimental: The figure illustrates the basal AD037 expression in THP-1 monocytes in response to LPS (“LPS”), LPS and the glucocorticoid dexamethasone (“LP/Dex”), or LPS and the IKK-2 inhibitor BMS-345541 (“LPS/345541”), for 2 hours, 4 hours, and 8 afters post stimulation. Unstimulated THP-1 moncytes served as a control. […] Expression data was obtained by measuring the steady state AD037 mRNA levels by quantitative PCR using the PCR primer pair provided as SEQ ID NO:162 and 163 as described herein.
Moreover, in an effort to further confirm the NF-κB-dependent expression of AD037, two approaches were investigated. In the first approach, additional inhibitors of the NF-κB pathway were used to assess their affect on AD037 expression. Although it has other transcriptional effects, dexamethasone inhibits NF-κB activity via glucocorticoid receptor-mediated transrepression (Reichardt et al. (2001) EMBO J. 20:7168-7173). The compound 4(2′-aminoethyl)amino-1,8-dimethylimidazo(1,2-a) quinoxaline, is a selective IKK-2 inhibitor (International Publication No. WO 02/60386, Published Oct. 10, 2002; Burke et al. (2003) J. Biol. Chem. 278:1450-1456).

AD037 mRNA [2] = test: AD037 mRNA by RT-PCR in stimulated THP-1 human monocyte line; format: cell-based; conditions: THP-1 cells stimulated for 8, 24, or 48 hours; 100 ng/ml LPS, 10 ng/ml TNFα or 100 units/ml IFN-γ; FIG. 18
Experimental: as §1, with “Five-hundred nanograms of polyA RNA was used for first-strand cDNA synthesis using the SuperScriptTm First-Strand Synthesis System for RT-PCR (Invitrogen) according to the manufacturer's instructions with 250 ng of random hexamers.” left out
PCR reactions were performed in a total volume of 40 ul containing master mix (SYBR Green I dye, 50 mM Tris-Cl pH 8.3, 75 mM KCl, DMSO, Rox reference dye, 5 mM MgCl2, 2 mM dNTP, I unit Platinum Taq High Fidelity enzyme), 0.5 uM each of forward and reverse gene-specific primers, and cDNA (8 ul of a 1:36 dilution of the first strand reaction mix). […] The data were analyzed using the TaqMan 5700 software with the threshold value set to 0.5. […]
The THP-1 human monocyte line was stimulated with 100 ng/ml LPS, 10 ng/ml TNFα (Peprotech, Rocky Hill, N.J.), or 100 units/ml interferon-γ (IFN-γ, Peprotech) for either 8, 24, or 48 hours. […] The levels of each NFkB associated polypeptide mRNA may be measured by RT-PCR analysis using the primers described herein for each gene. […]

Row | Molecule | AD037 mRNA level (RT-PCR, normalized to GAPDH) (AD037 mRNA [1]) | LPS-induced AD037 expression (mRNA) (NF-κB pathway) | LPS-induced AD037 expression (mRNA) (NF-κB pathway; listed as 4(2′-aminoethyl)amino-1,8-dimethylimidazo(1,2-a) quinoxaline) | AD037 mRNA level (RT-PCR, normalized to GAPDH) (AD037 mRNA [2])
1 | IL-17: IL-17 (R&D Systems) cytokine stimulus | No upregulation | – | – | –
2 | Cc1ccc2nc(NCCN)c3ncc(C)n3c2c1 [BMS-345541, 4(2′-aminoethyl)amino-1,8-dimethylimidazo(1,2-a) quinoxaline] | – | reduced to control levels | significantly inhibited | –
3 | IFN-γ: interferon-γ (Peprotech), fails to activate the NF-KB pathway | – | – | – | Little upregulation
4 | TNFα | No upregulation | – | – | upregulated
5 | B1 | No upregulation | – | – | –
